Data reported in BindingDB's records for patent US11174245 (Boehringer Ingelheim International, 2021).

Biological target: Epidermal growth factor receptor [695-1022,T790M,C797S,L858R] (Homo sapiens, UniProt P00533, C797S/L858R/T790M)
Experiment: Biochemical EGFR Inhibition Assays ([…])
Design: 695-1022
Experimental: 5 μL of EGFR enzyme form in assay buffer (50 mM HEPES pH 7.3, 10 mM MgCl2, 1 mM EGTA, 0.01% Tween 20, 2 mM DTT) are dispensed into columns 1-23, than 5 μL of ATP and ULight-poly-GT substrate (PerkinElmer; TRF0100-M) mix in assay buffer is added to all wells (final assay concentration of the ULight-poly-GT substrate 200 nM). Each of the different EGFR enzyme form assays is available at high ATP levels (final assay concentration 100 μM). After 90 minutes incubation at room temperature 5 μL EDTA (final assay concentration 50 mM) and LANCE Eu-anti-P-Tyr (PT66) antibody (PerkinElmer, AD0069) (final assay concentration 6 nM) mix are added to stop the reaction and start the binding of the antibody. […] Each plate contains 16 wells of a negative control (diluted DMSO instead of test compound; w EGFR enzyme form; column 23) and 16 wells of a positive control (diluted DMSO instead of test compound; w/o EGFR enzyme form; column 24). Negative and positive control values are used for normalization and IC50 values are calculated and analysed using a 4 parametric logistic model.

Epidermal growth factor receptor [695-1022,T790M,C797S,L858R], sequence (P00533 695-1022 T790M/C797S/L858R): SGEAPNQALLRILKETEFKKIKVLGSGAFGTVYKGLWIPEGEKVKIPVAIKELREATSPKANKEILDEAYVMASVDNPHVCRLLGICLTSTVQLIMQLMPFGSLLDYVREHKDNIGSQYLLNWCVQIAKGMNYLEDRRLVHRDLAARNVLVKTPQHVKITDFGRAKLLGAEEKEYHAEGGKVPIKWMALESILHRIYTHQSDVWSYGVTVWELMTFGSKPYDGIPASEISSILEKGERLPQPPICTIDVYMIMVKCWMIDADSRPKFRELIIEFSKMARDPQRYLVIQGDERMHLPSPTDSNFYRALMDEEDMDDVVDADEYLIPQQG

- IC50: 3 nM
SMILES: COc1ccncc1-c1cc(C(=O)/N=c2\[nH]c3cc(C4CCN(C(C)=O)CC4)ccc3n2CC(C)(C)O)ccn1 [US11174245, # I-031]
